Among the data in ChEMBL document CHEMBL1201861, “Genomics of Drug Sensitity in Cancer screening data, Wellcome Trust Sanger Institute” are IC50 values, retold here.

The structures appear in SMILES notation. Where “and” joins values, the source holds several entries; their conditions need not be identical. Identical values can stand only once. Where a SMILES comes first, the peptide text is derived from it. The star is where a group is joined. Cbz = O=C(OCc1ccccc1)*

What all share (experiment): cells
In one assay the test system is THP-1. It counts as functional, cell-based, Homo sapiens.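 Also: growth inhibition of THP-1 cells, read out via a cell viability assay.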
For a further assay, the system named is SIG-M5. It is filed as functional, cell-based, Homo sapiens.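 Also: cell viability assay read-out, measuring how strongly growth of cultured human SIG-M5 cells is inhibited.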
Another assay has as its system DG-75. It is filed as functional, cell-based, Homo sapiens.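 Also: growth inhibition of DG-75 cells, read out with a cell viability assay.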
For the next assay, the system named is LP-1. It counts as functional, cell-based, Homo sapiens.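 Also: growth inhibition of human LP-1 cells, with the read-out taken from a cell viability assay.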
In the next assay the test system is SR. It is filed as functional, cell-based, Homo sapiens.
In the next assay the test system is L-540. It is filed as functional, cell-based, Homo sapiens.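 Also: growth inhibition of the human L-540 cell line, read out with a viability assay.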
Another assay has as its system LU-165. It counts as functional, cell-based, Homo sapiens.
A further assay has as its system LB373-MEL-D. It counts as functional, cell-based, Homo sapiens.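 Also: growth inhibition of the cell line, read out in a cell viability assay.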
The subject of the next assay is HuTu80. It is filed as functional, cell-based, Homo sapiens, HUTU-80.
The next assay has as its system CA46. It is filed as functional, cell-based, Homo sapiens.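 Also: growth inhibition of human CA46 cells, read out by a cell viability assay.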
A further assay relates to MHH-CALL-2. It counts as functional, cell-based, Homo sapiens.
The subject of another assay is DMS-153. It counts as functional, cell-based, Homo sapiens.
The test system of another assay is KMOE-2. It counts as functional, cell-based, Homo sapiens.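 Also: growth inhibition of human KMOE-2 cells, read out with a cell viability assay.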
A further assay deals with EB2. It counts as functional, cell-based, Homo sapiens.
The subject of the next assay is SNU-C1. It is filed as functional, cell-based, Homo sapiens.
For another assay, the system named is YT. It is filed as functional, cell-based, Homo sapiens.
The next assay deals with HCC 2998. It counts as functional, cell-based. To be noted: Homo sapiens.

Description for CA46: SANGER: Inhibition of human CA46 cell growth in a cell viability assay.
Description for DG-75: SANGER: Inhibition of human DG-75 cell growth in a cell viability assay.
Description for DMS-153: SANGER: Inhibition of human DMS-153 cell growth in a cell viability assay.
Description for EB2: SANGER: Inhibition of human EB2 cell growth in a cell viability assay.
Description for HCC 2998: SANGER: Inhibition of human HCC2998 cell growth in a cell viability assay.
Description for HuTu80: SANGER: Inhibition of human HUTU-80 cell growth in a cell viability assay.
Description for KMOE-2: SANGER: Inhibition of human KMOE-2 cell growth in a cell viability assay.
Description for L-540: SANGER: Inhibition of human L-540 cell growth in a cell viability assay.
Description for LB373-MEL-D: SANGER: Inhibition of human LB373-MEL-D cell growth in a cell viability assay.
Description for LP-1: SANGER: Inhibition of human LP-1 cell growth in a cell viability assay.
Description for LU-165: SANGER: Inhibition of human LU-165 cell growth in a cell viability assay.
Description for MHH-CALL-2: SANGER: Inhibition of human MHH-CALL-2 cell growth in a cell viability assay.
Description for SIG-M5: SANGER: Inhibition of human SIG-M5 cell growth in a cell viability assay.
Description for SNU-C1: SANGER: Inhibition of human SNU-C1 cell growth in a cell viability assay.
Description for SR: SANGER: Inhibition of human SR cell growth in a cell viability assay.
Description for THP-1: SANGER: Inhibition of human THP-1 cell growth in a cell viability assay.
Description for YT: SANGER: Inhibition of human YT cell growth in a cell viability assay.

In the case of `COc1cc(N2CCC(N3CCN(C)CC3)CC2)ccc1Nc1ncc(Cl)c(Nc2ccccc2S(=O)(=O)C(C)C)n1` [TAE-684], the concentration for half-maximal inhibition (IC50) (in general, the concentration that inhibits the measured activity by half) in the assay on THP-1 (Homo sapiens, THP-1) was > 2000 nM; in the assay on SIG-M5 (Homo sapiens, SIG-M5), 292 nM; with DG-75 (Homo sapiens, DG-75), > 2000 nM; in the assay with LP-1 (Homo sapiens, LP-1), 1870 nM; in the assay on SR (Homo sapiens, SR), 2.77 nM; in the assay on L-540 (Homo sapiens, L-540), 370 nM. Besides, the half-inhibitory concentration (IC50) with LU-165 (Homo sapiens, LU-165) is > 2000 nM; in the assay on LB373-MEL-D (Homo sapiens, LB373-MEL-D), > 2000 nM; with HuTu80 (Homo sapiens, HuTu80), 474 nM; with CA46 (Homo sapiens, CA46), > 2000 nM; in the assay with MHH-CALL-2 (Homo sapiens, MHH-CALL-2), 29.5 nM; in the assay on DMS-153 (Homo sapiens, DMS-153), > 2000 nM. Further, the IC50 in the assay with KMOE-2 (Homo sapiens, KMOE-2) is > 2000 nM; in the assay on EB2 (Homo sapiens, EB2), > 2000 nM; with SNU-C1 (Homo sapiens, SNU-C1), > 2000 nM; in the assay with YT (Homo sapiens, YT), > 2000 nM.
`Nc1ccccc1NC(=O)c1ccc(CNC(=O)OCc2cccnc2)cc1` [ENTINOSTAT]: the IC50 was > 5000 nM in the assay on THP-1 (Homo sapiens, THP-1); 578 nM in the assay with SIG-M5 (Homo sapiens, SIG-M5); 784 nM with HCC 2998; 2270 nM with DG-75 (Homo sapiens, DG-75); 1300 nM in the assay with LP-1 (Homo sapiens, LP-1); 343 nM in the assay on SR (Homo sapiens, SR). Moreover, the IC50 in the assay with L-540 (Homo sapiens, L-540) is 1110 nM; in the assay on LU-165 (Homo sapiens, LU-165), 618 nM; in the assay on LB373-MEL-D (Homo sapiens, LB373-MEL-D), 2270 nM; with HuTu80 (Homo sapiens, HuTu80), 1800 nM; in the assay with CA46 (Homo sapiens, CA46), > 5000 nM; in the assay on MHH-CALL-2 (Homo sapiens, MHH-CALL-2) it was 1250 nM. In addition, the IC50 in the assay on DMS-153 (Homo sapiens, DMS-153) was 975 nM; in the assay on KMOE-2 (Homo sapiens, KMOE-2) it was 2880 nM; in the assay with EB2 (Homo sapiens, EB2), > 5000 nM; in the assay on SNU-C1 (Homo sapiens, SNU-C1), > 5000 nM; with YT (Homo sapiens, YT) it was > 5000 nM.
With `CC(C)C[C@@H](C=O)NC(=O)[C@H](CC(C)C)NC(=O)[C@H](CC(C)C)NC(=O)OCc1ccccc1` [MG-132] (Cbz-Leu-Leu-Leu-aldehyde), the IC50 with THP-1 (thp-1) is > 1000 nM; in the assay with SIG-M5 (sig-m5), > 1000 nM; in the assay with HCC 2998, 939 nM; with DG-75 (Homo sapiens, DG-75), > 1000 nM; in the assay with DG-75 (dg-75), > 1000 nM; in the assay with LP-1 (lp-1) it was > 1000 nM. Also, the IC50 is > 1000 nM with SR (sr); > 1000 nM in the assay on L-540 (l-540); > 1000 nM in the assay with LU-165 (lu-165); 242 nM and > 1000 nM in the assay on LB373-MEL-D (lb373-mel-d); > 1000 nM in the assay on HuTu80 (Homo sapiens, HuTu80); > 1000 nM in the assay with HuTu80 (hutu-80). The IC50 was > 1000 nM with CA46 (Homo sapiens, CA46); > 1000 nM with CA46 (ca46); > 1000 nM with MHH-CALL-2 (mhh-call-2); > 1000 nM in the assay on DMS-153 (Homo sapiens, DMS-153); > 1000 nM with DMS-153 (dms-153); > 1000 nM with KMOE-2 (Homo sapiens, KMOE-2). Besides, the IC50 in the assay on KMOE-2 (kmoe-2), with EB2 (eb2), in the assay on SNU-C1 (snu-c1) and with YT (yt) was > 1000 nM in each case.
For `CC(C)C[C@H](NC(=O)[C@H](Cc1ccccc1)NC(=O)c1cnccn1)B(O)O` [BORTEZOMIB], the concentration for half-maximal inhibition (IC50) in the assay with THP-1 (Homo sapiens, THP-1) was > 20 nM; in the assay on SIG-M5 (Homo sapiens, SIG-M5) it was > 20 nM; in the assay on HCC 2998, 0.412 nM; in the assay on DG-75 (Homo sapiens, DG-75) it was 18.6 nM; with LP-1 (Homo sapiens, LP-1), > 20 nM; in the assay with SR (Homo sapiens, SR), 1.25 nM. The IC50 was 1.37 nM in the assay on L-540 (Homo sapiens, L-540); > 20 nM with LU-165 (Homo sapiens, LU-165); 0.7 nM in the assay with LB373-MEL-D (Homo sapiens, LB373-MEL-D); 0.533 nM in the assay on HuTu80 (Homo sapiens, HuTu80); > 20 nM with CA46 (Homo sapiens, CA46); > 20 nM with MHH-CALL-2 (Homo sapiens, MHH-CALL-2). The IC50 with DMS-153 (Homo sapiens, DMS-153) is > 20 nM; with KMOE-2 (Homo sapiens, KMOE-2), 2.23 nM; with EB2 (Homo sapiens, EB2), 18.1 nM; with SNU-C1 (Homo sapiens, SNU-C1), > 20 nM; in the assay with YT (Homo sapiens, YT), > 20 nM.
